For one assay, the system named is NCIH460 (lung) cells. The assay can be described thus: Anti-cancer screen (MTT), NCIH460. Format: cell-based. To be noted: Homo sapiens, NCI-H460, NCIH460, 48 hours, MTT; for GI50: read-out: Cell growth inhibition NCIH460 (Lung) GI50; for LC50: read-out: Cell growth inhibition NCIH460 (Lung) LC50; for IC (TGI): read-out: Cell growth inhibition NCIH460 (Lung) TGI. In short, it runs like this:
(§1)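 Five-point MTT cytotoxicity test with 48 h compound exposure (final 0.01–100 μM, triplicate) in DMEM with 10% FBS, using a T0 viability plate and SAHA as reference standard.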

A further assay deals with HCT 116 (colon) cells. The assay can be described thus: Anti-cancer screen (MTT), HCT 116. To be noted: Homo sapiens, HCT-116, HCT116, 48 hours, MTT; for GI50: read-out: Cell growth inhibition HCT116 (Colon) GI50; for CC50: read-out: Cell growth inhibition HCT116 (Colon) LC50; for IC (TGI): read-out: Cell growth inhibition HCT116 (Colon) TGI. Format: cell-based. The essentials:
as §1

The next assay concerns U251 (glioma) cells. The assay can be described thus: Anti-cancer screen (MTT), U251. Format: cell-based. Particulars: Homo sapiens, U-251, U251, 48 hours, MTT; for GI50: read-out: Cell growth inhibition U251 (Glioma) GI50; for LC50 (concentration giving 50% net cell kill relative to the time-zero cell count): read-out: Cell growth inhibition U251 (Glioma) LC50; for IC (TGI): read-out: Cell growth inhibition U251 (Glioma) TGI. In short, it runs like this:
as §1

The subject of assay [1] is NCIH460, HCT116 and U251 cells. The assay can be described thus: Anti-cancer screen, mean GI50 over cell lines. Format: cell-based. To be noted: mean over cell lines; read-out: Cell growth inhibition Mean GI50. In short, it runs like this: as §1
For assay [2], the system named is HDAC (Mouse Liver Extract). The assay can be described thus: HDAC inhibition assay using Boc-Lys(Ac)-AMC substrate. Format: biochemical. Particulars: mouse liver enzyme. The essentials:
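Released AMC measured at 360 nm excitation, 460 nm emission after 15-30 min trypsin development at 37° C. Preceding deacetylation: mouse liver extract with acetylated-lysine AMC substrate, 30 min at 37° C after 5-min preincubation; blanks were buffer alone and substrate alone.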

Structures are written as SMILES. Where only a bound is given, the exact number is not on record here.

On to `COc1cc(/C=C(/C(=O)NCc2ccc(C(=O)Nc3ccccc3N)cc2)c2ccc(F)cc2)cc(OC)c1OC` [Compound 8, N-(2-Aminophenyl)-4-((3-(3,4,5-trimethoxyphenyl)-2-(4-fluorophenyl)acrylamido)methyl)benzamide], for which, in the assay with NCIH460 (lung) cells, the GI50 amounted to 89 µM, the 50% lethal concentration (LC50) was over 100 µM and the IC (TGI) is over 100 µM. Further, in the assay with HCT 116 (colon) cells, the GI50 was 24.5 µM, the CC50 was over 100 µM and the IC (TGI) was 82.5 µM. In addition, in the assay with U251 (glioma) cells, the GI50 is 67 µM, the LC50 (concentration giving 50% net cell kill relative to the time-zero cell count) was over 100 µM and the IC (TGI) is 84.5 µM. Also, in assay [1], the GI50 amounted to 60.2 µM. Further, in assay [2], the “HDAC inhibition % (1 μM)” value was 21.4% and the “HDAC inhibition % (10 μM)” value came out at 26.4%.

Take `O=C(NCc1ccc(C(=O)NO)cc1)/C(=C/c1ccc(F)cc1)c1ccc(C(F)(F)F)cc1` [Compound 50, 4-((2-(4-Trifluoromethyllphenyl)-3-(4-fluorophenyl)acrylamido)methyl)-N-hydroxybenzamide]: in the assay with NCIH460 (lung) cells, the concentration for 50% growth inhibition (GI50) worked out at 38 µM, the LC50 stood at 92 µM and the IC (TGI) was found to be 69 µM. Also, in the assay on HCT 116 (colon) cells, the 50% growth inhibitory concentration (GI50) amounted to 22 µM, the CC50 was 88 µM and the IC (TGI) amounted to 55 µM. In the assay on U251 (glioma) cells, the GI50 was found to be 43 µM, the LC50 (concentration giving 50% net cell kill relative to the time-zero cell count) was found to be 87 µM and the IC (TGI) was 72 µM. Further, the GI50 in assay [1] stood at 34.3 µM. For the same compound, in assay [2], the “HDAC inhibition % (1 μM)” value turned out to be 50.1% and the “HDAC inhibition % (10 μM)” value is listed as 87.1%.

For `COc1ccc(/C=C(/C(=O)NCc2ccc(C(=O)Nc3ccccc3N)cc2)c2ccccc2)cc1` [Compound 2, N-(2-Aminophenyl)-4-((3-(4-methoxyphenyl)-2-(phenyl)acrylamido)methyl)benzamide], in the assay with NCIH460 (lung) cells, the GI50 came to 2.9 µM, the LC50 is over 100 µM and the IC (TGI) was found to be 8.2 µM. In the assay with HCT 116 (colon) cells, the GI50 was found to be 4.4 µM, the CC50 is over 100 µM and the IC (TGI) was determined as 9.4 µM. For the same compound, in the assay with U251 (glioma) cells, the GI50 amounted to 7.6 µM, the LC50 (concentration giving 50% net cell kill relative to the time-zero cell count) is over 100 µM and the IC (TGI) is 39 µM. In assay [1], the GI50 amounted to 5 µM. In addition, in assay [2], the “HDAC inhibition % (1 μM)” value is reported as 2.3% and the “HDAC inhibition % (10 μM)” value is 6.8%.

Regarding `COc1cc(/C=C(/C(=O)NCc2ccc(C(=O)NO)cc2)c2ccc(F)cc2)ccc1F` [Compound 60, 4-((2-(4-Fluorophenyl)-3-(4-fluoro-3-methoxyphenyl)acrylamido)methyl)-N-hydroxybenzamide], in the assay on NCIH460 (lung) cells, the GI50 was found to be 25 µM, the LC50 stood at 80 µM and the IC (TGI) turned out to be 50 µM. Also, in the assay with HCT 116 (colon) cells, the GI50 was found to be 10 µM, the CC50 was found to be 81 µM and the IC (TGI) is 50 µM. For the same compound, in the assay on U251 (glioma) cells, the GI50 came out at 17 µM, the LC50 (concentration giving 50% net cell kill relative to the time-zero cell count) is 99 µM and the IC (TGI) is 38 µM. Besides, the GI50 in assay [1] was found to be 17.3 µM. Besides, in assay [2], the “HDAC inhibition % (1 μM)” value came out at 66.6% and the “HDAC inhibition % (10 μM)” value is 95.0%.

Regarding `O=C(CCCCCNC(=O)NC(=O)/C(=C/c1ccccc1)c1ccccc1)NO` [Compound 101], in the assay on NCIH460 (lung) cells, the GI50 was 10 µM, the LC50 is 82 µM and the IC (TGI) was 45 µM. Further, in the assay with HCT 116 (colon) cells, the GI50 was determined as 2.9 µM, the CC50 was determined as 13.2 µM and the IC (TGI) was determined as 7.6 µM. Besides, in the assay with U251 (glioma) cells, the GI50 is 7 µM, the LC50 (concentration giving 50% net cell kill relative to the time-zero cell count) is 76 µM and the IC (TGI) came out at 35 µM. In addition, the GI50 in assay [1] stood at 6.6 µM. Moreover, in assay [2], the “HDAC inhibition % (1 μM)” value came out at 89.5%, the “HDAC inhibition % (10 μM)” value was found to be 97.1% and the IC50 worked out at 0.07 µM.

`O=C(CCCCCCNC(=O)/C(=C\c1ccccc1)c1ccccc1)NO` [Compound 85, (2Z)-7-(2,3-Diphenylacrylamido)-N-hydroxy heptanamide]: in the assay on NCIH460 (lung) cells, the GI50 came out at 3.3 µM, the LC50 turned out to be 75 µM and the IC (TGI) was found to be 25 µM. Moreover, in the assay on HCT 116 (colon) cells, the GI50 was 3.1 µM, the CC50 was over 100 µM and the IC (TGI) was determined as 23 µM. In addition, in the assay with U251 (glioma) cells, the GI50 is 4.8 µM, the LC50 (concentration giving 50% net cell kill relative to the time-zero cell count) is 80 µM and the IC (TGI) was 27 µM. Also, the GI50 in assay [1] is 3.7 µM. In assay [2], the “HDAC inhibition % (1 μM)” value stood at 79.3%, the “HDAC inhibition % (10 μM)” value came to 95.8% and it took 0.38 µM to reach half-maximal inhibition (IC50).

As to `O=C(CCCCCNC(=O)NC(=O)/C(=C/c1ccc(F)c(F)c1)c1ccc(F)cc1)NO` [Compound 100], in the assay on NCIH460 (lung) cells, the GI50 stood at 40 µM, the LC50 was found to be 96 µM and the IC (TGI) is 70 µM. In addition, in the assay with HCT 116 (colon) cells, the GI50 came out at 8.8 µM, the CC50 came out at 82 µM and the IC (TGI) is 46 µM. In the assay with U251 (glioma) cells, the GI50 was determined as 28 µM, the LC50 (concentration giving 50% net cell kill relative to the time-zero cell count) stood at 84 µM and the IC (TGI) amounted to 62 µM. In addition, in assay [1], the GI50 turned out to be 25.6 µM. In assay [2], the “HDAC inhibition % (1 μM)” value turned out to be 77.1% and the “HDAC inhibition % (10 μM)” value worked out at 96.3%.

`Nc1ccccc1NC(=O)c1ccc(CNC(=O)/C(=C/c2ccc([N+](=O)[O-])s2)c2ccc(F)cc2)cc1` [Compound 7, N-(2-Aminophenyl)-4-((3-(5-nitrothiophen-2-yl)-2-(4-fluorophenyl)acrylamido)methyl)benzamide]: in the assay with NCIH460 (lung) cells, the GI50 was determined as 6.2 µM, the LC50 was found to be 73.8 µM and the IC (TGI) stood at 26.5 µM. In the assay on HCT 116 (colon) cells, the GI50 is 4.5 µM, the CC50 was found to be 71.2 µM and the IC (TGI) is 9.6 µM. For the same compound, in the assay with U251 (glioma) cells, the GI50 stood at 17 µM, the LC50 (concentration giving 50% net cell kill relative to the time-zero cell count) amounted to 76 µM and the IC (TGI) is 34.5 µM. Further, in assay [1], the GI50 came out at 9.2 µM. Moreover, in assay [2], the “HDAC inhibition % (1 μM)” value amounted to 12.4% and the “HDAC inhibition % (10 μM)” value is listed as 19.4%.

`COc1ccc(/C=C(/C(=O)NCc2ccc(C(=O)Nc3ccccc3N)cc2)c2cccs2)cc1OC` [Compound 37, N-(2-Aminophenyl)-4-((3-(3,4-dimethoxyphenyl)-2-(thiophen-2-yl)acrylamido)methyl)benzamide]: in the assay with NCIH460 (lung) cells, the GI50 stood at 2 µM, the LC50 was determined as 100 µM and the IC (TGI) was 6 µM. In addition, in the assay on HCT 116 (colon) cells, the GI50 is 1.1 µM, the CC50 came out at 80 µM and the IC (TGI) worked out at 6 µM. Also, in the assay on U251 (glioma) cells, the GI50 is 2.6 µM, the LC50 (concentration giving 50% net cell kill relative to the time-zero cell count) was found to be 51 µM and the IC (TGI) worked out at 7 µM. Also, the GI50 in assay [1] was found to be 1.9 µM. In assay [2], the “HDAC inhibition % (1 μM)” value amounted to 31.7%, the “HDAC inhibition % (10 μM)” value stood at 59.9% and the IC50 was 5 µM.

As to `O=C(NCc1ccc(C(=O)NO)cc1)/C(=C/c1c(F)cc(F)cc1F)c1ccc(F)cc1` [Compound 54, 4-((2-(4-Fluorophenyl)-3-(2,4,6-trifluorophenyl)acrylamido)methyl)-N-hydroxybenzamide], in the assay on NCIH460 (lung) cells, the GI50 amounted to 8 µM, the LC50 is 68 µM and the IC (TGI) stood at 24 µM. Besides, in the assay on HCT 116 (colon) cells, the GI50 was 4.4 µM, the CC50 stood at 59 µM and the IC (TGI) came out at 20 µM. In the assay on U251 (glioma) cells, the GI50 is 19 µM, the LC50 (concentration giving 50% net cell kill relative to the time-zero cell count) was 64 µM and the IC (TGI) is 25 µM. Further, the GI50 in assay [1] worked out at 10.5 µM. Besides, in assay [2], the “HDAC inhibition % (1 μM)” value worked out at 67.5% and the “HDAC inhibition % (10 μM)” value is 89.8%.

For `CSc1ccc(/C=C(/C(=O)NCc2ccc(C(=O)Nc3ccccc3N)cc2)c2ccccc2F)cc1` [Compound 24, N-(2-Aminophenyl)-4-((3-(4-methylthiophenyl)-2-(2-fluorophenyl)acrylamido)methyl)benzamide], in the assay on NCIH460 (lung) cells, the GI50 was determined as 5 µM and the IC (TGI) was found to be 32 µM. In the assay on HCT 116 (colon) cells, the GI50 was 3.8 µM, the CC50 is over 100 µM and the IC (TGI) was determined as 12 µM. Moreover, in the assay with U251 (glioma) cells, the GI50 was found to be 8.5 µM and the IC (TGI) turned out to be 30 µM. For the same compound, the GI50 in assay [1] was 5.8 µM. For the same compound, in assay [2], the “HDAC inhibition % (1 μM)” value was 41.3% and the “HDAC inhibition % (10 μM)” value was 51.4%.

The values above are taken from patent US8476255B2, “Histone deacetylase inhibitors” (Orchid Chemicals & Pharmaceuticals Limited, priority 2007, dated 2013).
